Entries after “also recorded” stand apart in the source; their conditions may differ.
Tests used:
Assay type in all cases: in vivo, mouse
db/db mice = test: Open field test, off-target effects of AP in db/db mice; details: AP 10 mg/kg i.p. 3 days every 2 weeks for 8 weeks
Procedure: For off target effect measurements db/db and HDF mice (fed with HFD for 2 months prior treatment) were injected intraperitoneally (i.p.) with […] at 10 mg/kg or vehicle for 3 days every 2 weeks for 8 weeks.
Locomotor activity and anxiety-like behavior of mice were assessed in sound-insulated, rectangular activity chambers (Med Associates Inc., St Albans, Vt., USA: W×L×D=27 cm×27 cm×20 cm with continually running fans, infrared lasers, and sensors). Beam breaks were assessed in 2-minute bins over 30 minutes, converted automatically to current mouse location and distance travelled (cm), and recorded on a computer with Med-PC software Version 4.0. Before the test, mice were acclimatized to the room for 1-1.5 hours before being introduced into the chambers. Mice were habituated for 5 minutes in the Open Field chamber (without recording) then placed for another 5 minutes in the home cage. Afterwards, mice were introduced back to the chambers and all mouse movements were recorded for 30 minutes. Anxiety was quantified by the distance mice travelled in the central 25% of the chamber (zone 1) as a function of the total distance mice travelled and by frequencies of entries into zone 1.

[1] = test system: senescent cells in cortex, cerebellum, and hippocampus; test: Senescence markers in cortex, cerebellum and hippocampus, INK-ATTAC mice; details: obese and lean INK-ATTAC mice with and without AP
Procedure: (§1) INK-ATTAC mice were injected intraperitoneally (i.p.) with AP20187 (10 mg/kg) or vehicle for 3 days every 2 weeks for a total of 8-10 weeks.
Total RNA was extracted from white adipose tissue and brain using Trizol (Life Technologies, Carlsbad, Calif.) and reverse transcribed to cDNA with a M-MLV Reverse Transcriptase kit (Life Technologies). Real-time PCR was performed in a 7500 Fast Real Time PCR System (Applied Biosystems, Foster City, Calif.) using TaqMan Fast Universal PCR Master Mix (Life Technologies) and predesigned primers and probes from Applied Biosystems (Assay ID: Mm00494449_m1 [CDKN2A]; Mm04205640_g1 [CDKN1A]; Mm00446191_m1 [IL6]). Target gene expression was expressed as 2-ΔΔCT by the comparative CT method and normalized to the expression of TATA-binding protein (TBP) (Assay ID: Mm01277042 ml [TBP]).
(§2) Paraffin sections were deparaffinized with Histoclear and hydrated in an ethanol gradient followed by water and PBS. Antigen was retrieved by incubation in 0.01M citrate buffer (pH 6.0) at 95° C. for 10 minutes. Slides were placed in blocking buffer (1:60 normal goat serum [S-1000, Vector Laboratories] in 0.1% BSA/PBS) for 60 minutes at room temperature. […] Primary antibodies used (Table 2) were diluted in blocking buffer and applied overnight at 4° C. The next day, slides were washed 3 times with PBS and incubated for 30 minutes with secondary goat, anti-rabbit antibody (1:200; Vector Laboratories #BA-1000) for TAF staining or for 60 minutes with secondary Alexa antibody (Table 1). […]
A single, 3 μm-thick section per mouse was used for TAF staining, while for Dcx and Plin2 staining was performed on three 10 μm-thick sections 80 μm-apart. To quantify periventricular lipid accumulation 10-30 images in the periventricular region were taken using the DM5500 widefield fluorescence microscope from Leica with a 10× (for frequency of periventricular glia) or ×40 (for ALISE phenotype of ependymal cells) objective lens. Number of Plin2-positive cells (for frequency of ALISE-positive periventricular glia) or area of Plin2-positive vesicles (for ALISE phenotype of ependymal cells) was assessed using ImageJ software. For identity assessment of Plin2+ cells, 10 μm-thick sections were stained with combination of antibodies for Iba1 (secondary antibody conjugated with Alexa Fluor 488), Plin2 (secondary antibody conjugated with Alexa Fluor 594), and Vimentin (secondary antibody conjugated with Alexa Fluor 647) and quantified for frequency of Plin2+ astrocytes (Iba1−, Vim+) and microglia (Iba1+) in the periventricular region. […] For TAF quantification in depth Z stacking was used (images were captured as stacks separated by 0.4 μm with ×63 objective) followed by ImageJ analysis.

[2] = test system: senescent cells in the amygdala; test: Telomere associated foci (TAF) in basomedial layer of the amygdala, INK-ATTAC mice; details: HFD INK-ATTAC mice, AP20187 vs vehicle
Procedure: as §1
as §2, with “1). For TAF staining, Fluorescein-Avidin in PBS (1:500; #A-2011, Vector Lab) was applied to each sample for 20 minutes. Slides were washed 3 times in PBS, which was followed by FISH for TAF detection.” for “1).”
A single, 3 μm-thick section per mouse was used for TAF staining, while for Dcx and Plin2 staining was performed on three 10 μm-thick sections 80 μm-apart. To quantify periventricular lipid accumulation 10-30 images in the periventricular region were taken using the DM5500 widefield fluorescence microscope from Leica with a 10× (for frequency of periventricular glia) or ×40 (for ALISE phenotype of ependymal cells) objective lens. Number of Plin2-positive cells (for frequency of ALISE-positive periventricular glia) or area of Plin2-positive vesicles (for ALISE phenotype of ependymal cells) was assessed using ImageJ software. For identity assessment of Plin2+ cells, 10 μm-thick sections were stained with combination of antibodies for Iba1 (secondary antibody conjugated with Alexa Fluor 488), Plin2 (secondary antibody conjugated with Alexa Fluor 594), and Vimentin (secondary antibody conjugated with Alexa Fluor 647) and quantified for frequency of Plin2+ astrocytes (Iba1−, Vim+) and microglia (Iba1+) in the periventricular region. […]

## CC[C@H](C(=O)N1CCCC[C@H]1C(=O)O[C@H](CCc1ccc(OC)c(OC)c1)c1cccc(OCC(=O)NCC(CNC(=O)COc2cccc([C@@H](CCc3ccc(OC)c(OC)c3)OC(=O)[C@@H]3CCCCN3C(=O)[C@@H](CC)c3cc(OC)c(OC)c(OC)c3)c2)CN(C)C)c1)c1cc(OC)c(OC)c(OC)c1 [AP]
db/db mice
  anxiety-like behavior by open field test, off-target control: no difference; also recorded: No off-target effects
[1]
  TAF in cortex, cerebellum, hippocampus: No differences
  p16 in cortex, cerebellum, hippocampus: No differences
  p21 in cortex, cerebellum, hippocampus: No differences
  γ-H2A.X in cortex, cerebellum, hippocampus: No differences
[2]
  % of NeuN-pos cells with 2 or more TAF (TAF positive neurons), basomedial layer of the amygdala: significant decrease
  mean number of TAF in NeuN-pos cells, basomedial layer of the amygdala: significantly reduced
[2]; listed as AP20187
  % of NeuN-pos cells with 2 or more TAF (TAF positive neurons), basomedial layer of the amygdala: significantly reduced

Reference: US20210379068A1, “METHODS AND MATERIALS FOR TREATING NEUROPSYCHIATRIC DISORDERS” (Mayo Foundation for Medical Education and Research, priority 2018, published 2021)
